According to patent US20120070487A1, “ALKYLSACCHARIDE COMPOSITIONS WITH NUTRACEUTICALS” (AEGIS THERAPEUTICS LLC, priority 2010, published 2012):
Where a SMILES comes first, the peptide text is derived from it. [ ]: non-standard residue; d: D form.

Experiments:
in vivo = conditions: male, Swiss Webster, mouse, po, 1 mg
Description: (§1) Doses of 1 mg each were also administered to mice by the IP, SC and IM routes in solutions containing 0.18% tetradecyl beta-D-maltoside and compared to administration by oral gavage in a solution containing 0.3% (3 mg/mL wt/vol) of tetradecyl-beta-D-maltoside.
(§2) Six week-old male Swiss Webster mice weighing approximately 30 gm were maintained at a constant temperature (24 C) with lights on from 07:00 to 19:00 h, and allowed food and water ad libitum until used for uptake studies. […] For sc, im, and ip delivery, the peptide was dissolved in sterile phosphate buffered saline (PBS, pH 7.2) at a concentration of 1 mg/200 μL as described previously containing 0.18% tetradecyl-beta-D-maltoside. For oral gavage [D-Leu-4]OB3 was dissolved in 0.3% dodecyl-beta-D-maltoside reconstituted in PBS (pH 7.2) at a concentration of 1 mg/200 μL. […]
(§3) The [D-Leu-4]OB3 competitive ELISA assay was carried out as follows. […] Absorbance was read at 405 nm with a Molecular Devices microplate reader (MDS Sciex, Concord, Ontario Canada). […] The relative bioavailability was determined by plotting the serum concentrations of mouse [D-Leu-4]OB3 vs. time following ip, sc, or im delivery using the graphics program SigmaPlot™ 8.0 (SPSS Science, Chicago, Ill., USA). The area under each curve (AUC) was calculated with a function of this program.

[1] = mouse, in vivo
Description: as §1, §2, §3

[2] = Oral absorption of calcium with alkylsaccharide; blood levels in volunteers; assay type: in vivo, human; conditions: oral gelatin capsules, calcium citrate admixed with 3% dodecyl maltoside
Description: Calcium citrate is obtained from General Nutrition Corp. as 1000 mg tablets. The tablets are ground in a mortar and pestle until a fine uniform powder is created. The powder is admixed with 3% dodecyl maltoside, pharmaceutical grade (Inalco Chemical Co., Milan Italy) and filled into gelatin capsules, size #000-25 mm length (Capsuline, Pompano Beach, Fla.) and administered to volunteers. Blood samples are collected and calcium levels are measured by commercial clinical laboratory. The calcium blood levels obtained following oral administration with dodecyl maltoside are seen to be at least 20% higher than those obtained in the absence of dodecyl maltoside.

[3] = Oral absorption of resveratrol with sucrose laurate; blood levels in volunteers; assay type: in vivo, human; conditions: oral gelatin capsules, admixed with 5% w/w sucrose laurate
Description: Resveratrol was obtained from RevGenetics, Miami, Fla., as 300 mg gel capsules. Capsules were opened by carefully separating the two halves. The contents were combined and admixed with 5% w/w food grade sucrose laurate alkylsaccharide (Ryoto Sugar Ester M-1216, Mitsubishi-Kagaku Tokyo, Japan). Gelatin capsules were filled with the admixture and administered to volunteers. Blood samples are collected and resveratrol levels are measured by the method of Soleas et al. (Methods Enzymol 335: 130-45 (2001)). The resveratrol blood levels obtained following oral administration with sucrose laurate are at least 20% higher than those obtained in the absence of sucrose laurate.

**Q.** What does the source list for `CC(C)C[C@@H](NC(=O)[C@H](CO)NC(=O)[C@H](CS)NC(=O)[C@@H](N)CO)C(=O)N1CCC[C@H]1C(=O)N[C@@H](CCC(N)=O)C(=O)N[C@H](C(N)=O)[C@@H](C)O` [[D-Leu-4]OB3, Ser-Cys-Ser-D-Leu-Pro-Gln-Thr] (H-SCS[dL]PQT-NH2; N-terminus assumed)?
**A.** F rel (in vivo): 47.3%; Relative Oral Bioavailability Compared to Three Injection Modes (% of AUC achieved by each respective injection) [1]: 37.8% of IM AUC

**Q.** With `O=C([O-])CC(O)(CC(=O)[O-])C(=O)[O-].O=C([O-])CC(O)(CC(=O)[O-])C(=O)[O-].[Ca+2].[Ca+2].[Ca+2]` [Calcium citrate] as the compound, how does the “calcium blood levels, increase versus absence of dodecyl maltoside” value [2] read?
**A.** The value was “at least 20%”.

**Q.** For `Oc1ccc(C=Cc2cc(O)cc(O)c2)cc1` [Resveratrol], which “resveratrol blood levels, increase versus absence of sucrose laurate” value [3] is on record?
**A.** Its value is “at least 20%”.
